Data from US8034928B2, “Fluorescence assays with improved sensitivity” (Wisconsin Alumni Research Foundation, priority 2003, dated 2011).

Assays:
[1] = Stability: generation of fluorescence in PBS, DMEM or water without trigger; assay type: physicochemical; details: DMEM and PBS, 5 μM, no cells
Description: The biological utility of pro-fluorophore 3 was then studied. To be useful, a latent fluorophore must remain non-fluorescent or have a small fluorescence in a biological environment. Accordingly, the accumulation of fluorescence in Dulbecco's modified Eagle's medium (DMEM) and phosphate-buffered saline (PBS) containing either fluorescein diacetate (which is a widely used pro-fluorophore) or 3 were studied.
A solution of pro-fluorophore 3 (5 μM) in 2 mL PBS was treated with PLE (0.5 μg), and the mixture was kept at room temperature for 4 h. The fluorescence excitation-emission spectra of the solution were recorded. The procedure was repeated for a solution of pro-fluorophore 3 treated in an identical manner, except for the addition of PLE.

HeLa cells = assay: Fluorescence microscopy of HeLa cells incubated with pro-fluorophore in DMEM; assay type: cell-based; details: 10 μM, 2 h, 37° C., unwashed cells
Description: FIGS. 3B and C show unwashed HeLa cells incubated for 2 h with fluorescein diacetate (panel B; 10 μM) or 3 (panel C; 10 μM) at 37° C. in DMEM (5% CO2, 100% humidity). In FIG. 3C, the grey/white areas show the intensity of the fluorescence with the highest fluorescence shown as the lightest shade.
Fluorescence microscopy was used to determine the fate of fluorescein diacetate and pro-fluorophore 3 in DMEM containing HeLa cells.

accumulation of fluorescence in medium (stability) [1]: became fluorescent in minutes
SMILES: CC(=O)Oc1ccc2c(c1)Oc1cc(OC(C)=O)ccc1C21OC(=O)c2ccccc21 [fluorescein diacetate]
fluorescence in HeLa cells (HeLa cells): much greater in the medium than in HeLa cells
